Measured values published in the NIST ThermoML archive (doi:10.1016/j.jct.2012.04.018).
± gives the expanded uncertainty stated by the source.

Experiment: refractive index (other wavelength) (dimensionless)
Conditions: 100 kPa, Liquid, Wavelength=632.8 nm, He-Ne laser

SMILES | refractive index (280.98 K) | refractive index (281.89 K) | refractive index (283.78 K) | refractive index (286.19 K) | refractive index (288.04 K) | refractive index (290.13 K) | refractive index (280.08 K) | refractive index (281.97 K) | refractive index (283.66 K) | refractive index (285.71 K) | refractive index (287.84 K) | refractive index (290.47 K)
N#Cc1ccccc1 [benzonitrile] | 1.5309 ± 0.0003 | 1.5304 ± 0.0003 | 1.5296 ± 0.0003 | 1.5284 ± 0.0003 | 1.5275 ± 0.0003 | 1.5266 ± 0.0003 |  |  |  |  |  | 
CCCCCCCCCCC [undecane] |  |  |  |  |  |  | 1.4216 ± 0.0003 | 1.4209 ± 0.0003 | 1.4201 ± 0.0003 | 1.4192 ± 0.0003 | 1.4182 ± 0.0003 | 1.4171 ± 0.0003
